Experimental findings from patent publication US11554171B2, “Compounds and methods for the targeted degradation of bromodomain-containing proteins” (Arvinas Operations, Inc., priority 2015, dated 2023) are described below.

The assay relates to c-myc in 22RV-1 cells. As to the kind of experiment: Human c-myc ELISA assay. Format: cell-based. Conditions: Homo sapiens; for Emax: 22Rv1, 18 h, read-out: Degradation of BRD4: Maximum inhibition (%) c-Myc ELISA in 22RV1 cells; for DC50: 22Rv1, read-out: Degradation of BRD4: DC50 (uM) c-Myc ELISA in 22RV1 cells. On the procedure:
22RV-1 cells are seeded at 30,000 cells/well at a volume of 75 μL/well in RPMI+10% FBS media in 96-well plates and grown overnight at 37 C. Cells are dosed with compounds at 4× concentration diluted in 0.4% DMSO; compounds are serially diluted 1:3 for 8-point dose curve. 25 ul of compounds is added to cells for a final concentration starting at 300 nM-0.3 nM or 1 uM-1 nM in 0.1% DMSO and incubated for 18 hrs. Media is aspirated, cells washed 1× with PBS and aspirated. Cells are lysed in 50 ul RIPA buffer (50 mM Tris pH8, 150 mM NaCl, 1% Tx-100, 0.1% SDS, 0.5% sodium deoxycholate) supplemented with protease and phosphatase inhibitors. Plates are incubated on ice for 15 minutes then centrifuged at 4 C for 10 min at 4000 rpm. Add 50 ul of cleared lysate from 96-well assay plate into 96-well c-myc ELISA plate (Novex, Life Technologies Catalog #KH02041). Reconstitute c-myc standard with standard diluent buffer; standard curve range is 333 pg/ml-0 pg/ml, diluted 1:2 for 8-point dose curve. The rest of the assay was performed following the protocol from the c-myc ELISA kit. Data is analyzed and plotted using GraphPad Prism software. Compounds described in this application were assayed and c-myc suppression potency is listed in the following Table (A: DC50<10 nM; B: DC50 10-100 nM; C: DC50: 100-1000 nM; D: DC50>1000 nM)
(In general: An ELISA detects its analyte on a solid surface through an enzyme-linked reagent.)

Broadly, the DC50 is the midpoint of the concentration-degradation curve. Regarding `Cc1ncsc1-c1ccc(CNC(=O)[C@@H]2C[C@@H](O)CN2C(=O)[C@@H](NC(=O)COCCCOc2ccc(-c3cnc(NC(=O)C[C@@H]4N=C(c5ccc(Cl)cc5)c5c(sc(C)c5C)-n5c(C)nnc54)cn3)cc2)C(C)(C)C)cc1` [Example 21, (2S,4R)-1-[(2S)-2-(2-{3-[4-(5-{2-[(9S)-7-(4-chlorophenyl)-4,5,13-trimethyl-3-thia-1,8,11,12-tetraazatricyclo[8.3.0.0^2,^6]trideca-2(6),4,7,10,12-pentaen-9-yl]acetamido}pyrazin-2-yl)phenoxy]propoxy}acetamido)-3,3-dimethylbutanoyl]-4-hydroxy-N-{[4-(4-methyl-1,3-thiazol-5-yl)phenyl]methyl}pyrrolidine-2-carboxamide], the Emax was 91% and the DC50 is 0.01 to 0.1 µM.
For the compound `Cc1ncsc1-c1ccc(CNC(=O)[C@@H]2C[C@@H](O)CN2C(=O)[C@@H](NC(=O)COCCCOc2ccc(-c3cnc(NC(=O)C[C@@H]4N=C(c5ccc(Cl)cc5)c5c(sc(C)c5C)-n5c(C)nnc54)cn3)cc2F)C(C)(C)C)cc1` [Example 22], the Emax was determined as 94% and the DC50 lay within 0.01 to 0.1 µM.
For the compound `Cc1ncsc1-c1ccc(CNC(=O)[C@@H]2C[C@@H](O)CN2C(=O)[C@@H](NC(=O)COCCCOc2ccc(-c3ccc(NC(=O)C[C@@H]4N=C(c5ccc(Cl)cc5)c5c(sc(C)c5C)-n5c(C)nnc54)cn3)cc2F)C(C)(C)C)cc1` [Example 23], the Emax stood at 91% and the DC50 was 0.01 to 0.1 µM.
In the same order, the values of `Cc1ncsc1-c1ccc(CNC(=O)[C@@H]2C[C@@H](O)CN2C(=O)[C@@H](NC(=O)COCCCOc2ccc(-c3ccc(NC(=O)C[C@@H]4N=C(c5ccc(Cl)cc5)c5c(sc(C)c5C)-n5c(C)nnc54)c(F)c3)nc2)C(C)(C)C)cc1` [Example 24] are 87.5% and 0.01 to 0.1 µM.
For `Cc1ncsc1-c1ccc(CNC(=O)[C@@H]2C[C@@H](O)CN2C(=O)[C@@H](NC(=O)COCCCOCCCOc2ccc([C@H](C)NC(=O)C[C@@H]3N=C(c4ccc(Cl)cc4)c4c(sc(C)c4C)-n4c(C)nnc43)cc2)C(C)(C)C)cc1` [Example 25, (2S,4R)-1-[(2S)-2-{2-[3-(3-{4-[(1S)-1-{2-[(9S)-7-(4-chlorophenyl)-4,5,13-trimethyl-3-thia-1,8,11,12-tetraazatricyclo[8.3.0.0^2,^6]trideca-2(6),4,7,10,12-pentaen-9-yl]acetamido}ethyl]phenoxy}propoxy)propoxy]acetamido}-3,3-dimethylbutanoyl]-4-hydroxy-N-{[4-(4-methyl-1,3-thiazol-5-yl)phenyl]methyl}pyrrolidine-2-carboxamide], the Emax is 100% and the DC50 fell in the range of 0.01 to 0.1 µM.
For `Cc1ncsc1-c1ccc(CNC(=O)[C@@H]2C[C@@H](O)CN2C(=O)[C@@H](NC(=O)COCCCOCCCOc2ccc(C3(NC(=O)C[C@@H]4N=C(c5ccc(Cl)cc5)c5c(sc(C)c5C)-n5c(C)nnc54)CC3)cc2)C(C)(C)C)cc1` [Example 27, (2S,4R)-1-[(2S)-2-[2-(3-{3-[4-(1-{2-[(9S)-7-(4-chlorophenyl)-4,5,13-trimethyl-3-thia-1,8,11,12-tetraazatricyclo[8.3.0.0^2,^6]trideca-2(6),4,7,10,12-pentaen-9-yl]acetamido}cyclopropyl)phenoxy]propoxy}propoxy)acetamido]-3,3-dimethylbutanoyl]-4-hydroxy-N-{[4-(4-methyl-1,3-thiazol-5-yl)phenyl]methyl}pyrrolidine-2-carboxamide] the same measures were 100% and 0.01 to 0.1 µM.
For `Cc1ncsc1-c1ccc(CNC(=O)[C@@H]2C[C@@H](O)CN2C(=O)[C@@H](NC(=O)COCCCOCCCOc2ccc(NC(=O)C[C@@H]3N=C(c4ccc(Cl)cc4)c4c(sc(C)c4C)-n4c(C)nnc43)nc2)C(C)(C)C)cc1` [Example 28] the same measures were 100% and 0.01 to 0.1 µM.
Consider `Cc1ncsc1-c1ccc(CNC(=O)[C@@H]2C[C@@H](O)CN2C(=O)[C@@H](NC(=O)COCCOCCCOc2ccc([C@@H](C)NC(=O)C[C@@H]3N=C(c4ccc(Cl)cc4)c4c(sc(C)c4C)-n4c(C)nnc43)cc2)C(C)(C)C)cc1` [Example 29], for which the Emax is 96.8% and the DC50 is 0.01 to 0.1 µM.
In the same order, the values of `Cc1ncsc1-c1ccc([C@H](C)NC(=O)[C@@H]2C[C@@H](O)CN2C(=O)[C@@H](NC(=O)COCCOCCCOc2ccc([C@@H](C)NC(=O)C[C@@H]3N=C(c4ccc(Cl)cc4)c4c(sc(C)c4C)-n4c(C)nnc43)cc2)C(C)(C)C)cc1` [Example 30] are 96% and 0.01 to 0.1 µM.
`Cc1ncoc1-c1ccc(CNC(=O)[C@@H]2C[C@@H](O)CN2C(=O)[C@@H](NC(=O)COCCOCCCOc2ccc([C@@H](C)NC(=O)C[C@@H]3N=C(c4ccc(Cl)cc4)c4c(sc(C)c4C)-n4c(C)nnc43)cc2)C(C)(C)C)cc1` [Example 31]: the Emax came out at 65% and the DC50 was 0.1 to 1 µM.
Regarding `Cc1ncsc1-c1ccc(CNC(=O)[C@@H]2C[C@@H](O)CN2C(=O)[C@@H](NC(=O)COCCCCn2cc(-c3ccc([C@@H](C)NC(=O)C[C@@H]4N=C(c5ccc(Cl)cc5)c5c(sc(C)c5C)-n5c(C)nnc54)cc3)cn2)C(C)(C)C)cc1` [Example 33, (2S,4R)-1-[(2S)-2-{2-[4-(4-{4-[(1R)-1-{2-[(9S)-7-(4-chlorophenyl)-4,5,13-trimethyl-3-thia-1,8,11,12-tetraazatricyclo[8.3.0.0^2,^6]trideca-2(6),4,7,10,12-pentaen-9-yl]acetamido}ethyl]phenyl}-1H-pyrazol-1-yl)butoxy]acetamido}-3,3-dimethylbutanoyl]-4-hydroxy-N-{[4-(4-methyl-1,3-thiazol-5-yl)phenyl]methyl}pyrrolidine-2-carboxamide], the Emax turned out to be 100% and the 50% degradation concentration (DC50) fell in the range of 0.01 to 0.1 µM.
On to `Cc1ncsc1-c1ccc([C@H](C)NC(=O)[C@@H]2C[C@@H](O)CN2C(=O)[C@@H](NC(=O)COCCOCCCOc2ccc([C@H](C)NC(=O)C[C@@H]3N=C(c4ccc(Cl)cc4)c4c(sc(C)c4C)-n4c(C)nnc43)cc2)C(C)(C)C)cc1` [Example 34], for which the Emax turned out to be 99.7% and the DC50 was in the range of 0.01 to 0.1 µM.
In the same order, the values of `Cc1ncsc1-c1ccc(CNC(=O)[C@@H]2C[C@@H](O)CN2C(=O)[C@@H](NC(=O)COCCn2ccc(-c3ccc([C@@H](C)NC(=O)C[C@@H]4N=C(c5ccc(Cl)cc5)c5c(sc(C)c5C)-n5c(C)nnc54)cc3)cc2=O)C(C)(C)C)cc1` [Example 35] are 37% and greater than 1 µM.
For `Cc1ncsc1-c1ccc(CNC(=O)[C@@H]2C[C@@H](O)CN2C(=O)[C@@H](NC(=O)COCCOc2cc(-c3ccc([C@@H](C)NC(=O)C[C@@H]4N=C(c5ccc(Cl)cc5)c5c(sc(C)c5C)-n5c(C)nnc54)cc3)ccn2)C(C)(C)C)cc1` [Example 36, (2S,4R)-1-[(2S)-2-(2-{2-[(4-{4-[(1R)-1-{2-[(9S)-7-(4-chlorophenyl)-4,5,13-trimethyl-3-thia-1,8,11,12-tetraazatricyclo[8.3.0.0^2,^6]trideca-2(6),4,7,10,12-pentaen-9-yl]acetamido}ethyl]phenyl}pyridin-2-yl)oxy]ethoxy}acetamido)-3,3-dimethylbutanoyl]-4-hydroxy-N-{[4-(4-methyl-1,3-thiazol-5-yl)phenyl]methyl}pyrrolidine-2-carboxamide] the same measures were 97% and 0.01 to 0.1 µM.
Regarding `Cc1ncsc1-c1ccc(CNC(=O)[C@@H]2C[C@@H](O)CN2C(=O)[C@@H](NC(=O)COCCCOCCCOc2ccc(C(C)(C)NC(=O)C[C@@H]3N=C(c4ccc(Cl)cc4)c4c(sc(C)c4C)-n4c(C)nnc43)cc2)C(C)(C)C)cc1` [Example 37], the Emax was determined as 96% and the DC50 is 0.01 to 0.1 µM.
On to `Cc1ncsc1-c1ccc(CNC(=O)[C@@H]2C[C@@H](O)CN2C(=O)[C@@H](NC(=O)COCCOCCOCCOCCNC(=O)C[C@@H]2N=C(c3ccc(Cl)cc3)c3c(sc(C)c3C)-n3c(C)nnc32)C(C)(C)C)cc1` [Example 38], for which the Emax was 94% and the DC50 fell in the range of 0.01 to 0.1 µM.
In the same order, the values of `Cc1ncsc1-c1ccc(CNC(=O)[C@@H]2C[C@@H](O)CN2C(=O)[C@@H](NC(=O)COCCCOCC#Cc2ccc([C@@H](C)NC(=O)C[C@@H]3N=C(c4ccc(Cl)cc4)c4c(sc(C)c4C)-n4c(C)nnc43)cc2)C(C)(C)C)cc1` [Example 39, (2S,4R)-1-[(2S)-2-(2-{3-[(3-{4-[(1R)-1-{2-[(9S)-7-(4-chlorophenyl)-4,5,13-trimethyl-3-thia-1,8,11,12-tetraazatricyclo[8.3.0.0^2,^6]trideca-2(6),4,7,10,12-pentaen-9-yl]acetamido}-ethyl]phenyl}prop-2-yn-1-yl)oxy]propoxy}acetamido)-3,3-dimethylbutanoyl]-4-hydroxy-N-{[4-(4-methyl-1,3-thiazol-5-yl)phenyl]methyl}pyrrolidine-2-carboxamide] are 99% and 0.01 to 0.1 µM.
In the same order, the values of `Cc1ncsc1-c1ccc(CNC(=O)[C@@H]2C[C@@H](O)CN2C(=O)[C@@H](NC(=O)COCCCOCC#Cc2ccc([C@H](C)NC(=O)C[C@@H]3N=C(c4ccc(Cl)cc4)c4c(sc(C)c4C)-n4c(C)nnc43)cc2)C(C)(C)C)cc1` [Example 40] are 97.5% and 0.01 to 0.1 µM.
